Assay results as given in ChEMBL document CHEMBL5236585, “Design, synthesis and antifungal activities of novel triazole derivatives with selenium-containing hydrophobic side chains” (Bioorg Med Chem Lett, 2022).

Experiments:
Candida albicans [1] = experiment: Antifungal activity against Candida albicans ATCC SC5314 assessed as inhibition of fungal growth by microdilution method; type: functional
Candida tropicalis = experiment: Antifungal activity against Candida tropicalis CGMCC 2.3739 assessed as inhibition of fungal growth by microdilution method; type: functional
Candida parapsilosis = experiment: Antifungal activity against Candida parapsilosis 22019 assessed as inhibition of fungal growth by microdilution method; type: functional; conditions: Lodderomyces parapsilosis
Cryptococcus neoformans = experiment: Antifungal activity against Cryptococcus neoformans CGMCC 2.3161 assessed as inhibition of fungal growth by microdilution method; type: functional
Candida albicans [2] = experiment: Antifungal activity against Candida albicans CPCC 400616 assessed as inhibition of fungal growth by microdilution method; type: functional
Nakaseomyces glabratus = experiment: Antifungal activity against clinical isolate Candida glabrata assessed as inhibition of fungal growth by microdilution method; type: functional
Aspergillus fumigatus = experiment: Antifungal activity against Aspergillus fumigatus CGMCC 3.7795 assessed as inhibition of fungal growth by microdilution method; type: functional
Pichia kudriavzevii = experiment: Antifungal activity against Candida krusei AS 2.1045 assessed as inhibition of fungal growth by microdilution method; type: functional
[3] = target: T1, Lanosterol 14-alpha demethylase (Candida albicans (strain SC5314 / ATCC MYA-2876) (Yeast), UniProt P10613); experiment: Inhibition of CYP51 in Candida albicans SC5314 assessed as ergosterol level at 4 ug/ml by GC-MS analysis (reference value: 98.3 %); set-up: scale not given: the % may be the effect or the level left; conditions: at 4 µg/mL
T1 sequence (P10613 whole entry): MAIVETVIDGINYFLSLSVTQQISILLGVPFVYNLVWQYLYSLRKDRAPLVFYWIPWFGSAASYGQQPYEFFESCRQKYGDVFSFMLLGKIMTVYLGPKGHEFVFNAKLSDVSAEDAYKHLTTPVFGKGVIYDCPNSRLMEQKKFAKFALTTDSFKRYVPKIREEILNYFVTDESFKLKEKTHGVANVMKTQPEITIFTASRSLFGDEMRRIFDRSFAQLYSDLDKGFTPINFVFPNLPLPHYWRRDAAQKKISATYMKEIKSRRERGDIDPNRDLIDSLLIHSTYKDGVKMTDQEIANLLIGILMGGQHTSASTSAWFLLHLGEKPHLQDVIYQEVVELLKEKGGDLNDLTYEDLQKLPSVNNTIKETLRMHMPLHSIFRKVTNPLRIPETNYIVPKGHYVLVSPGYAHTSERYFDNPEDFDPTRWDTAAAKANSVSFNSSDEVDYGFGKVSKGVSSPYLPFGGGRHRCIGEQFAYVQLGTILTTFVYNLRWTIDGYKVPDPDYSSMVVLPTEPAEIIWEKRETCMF

[4] = target: T1, Lanosterol 14-alpha demethylase; experiment: Inhibition of CYP51 in Candida albicans SC5314 assessed as lanosterol level at 4 ug/ml by GC-MS analysis (reference value: 1.7 %); set-up: scale not given: the % may be the effect or the level left; conditions: at 4 µg/mL
[5] = target: T1, Lanosterol 14-alpha demethylase; experiment: Inhibition of CYP51 in Candida albicans SC5314 assessed as lanosterol level at 2 ug/ml by GC-MS analysis (reference value: 1.7 %); set-up: scale not given: the % may be the effect or the level left; conditions: at 2 µg/mL
HL-60 = experiment: Cytotoxicity against human HL-60 cells assessed as inhibition of cell growth by MTT assay; type: functional, cell-based
[6] = target: T1, Lanosterol 14-alpha demethylase; experiment: Inhibition of CYP51 in Candida albicans SC5314 assessed as ergosterol level at 8 ug/ml by GC-MS analysis (reference value: 98.3 %); set-up: scale not given: the % may be the effect or the level left; conditions: at 8 µg/mL
MDA-MB-231 = experiment: Cytotoxicity against human MDA-MB-231 cells assessed as inhibition of cell growth by MTT assay; type: functional, cell-based
[7] = target: T1, Lanosterol 14-alpha demethylase; experiment: Inhibition of CYP51 in Candida albicans SC5314 assessed as obtusifoliol level at 4 ug/ml by GC-MS analysis (reference value: 0 %); set-up: scale not given: the % may be the effect or the level left; conditions: at 4 µg/mL
[8] = target: T1, Lanosterol 14-alpha demethylase; experiment: Inhibition of CYP51 in Candida albicans SC5314 assessed as ergosterol level at 2 ug/ml by GC-MS analysis (reference value: 98.3 %); set-up: scale not given: the % may be the effect or the level left; conditions: at 2 µg/mL
[9] = target: T1, Lanosterol 14-alpha demethylase; experiment: Inhibition of CYP51 in Candida albicans SC5314 assessed as lanosterol level at 8 ug/ml by GC-MS analysis (reference value: 1.7 %); set-up: scale not given: the % may be the effect or the level left; conditions: at 8 µg/mL
[10] = target: T1, Lanosterol 14-alpha demethylase; experiment: Inhibition of CYP51 in Candida albicans SC5314 assessed as ergosterol level at 1 ug/ml by GC-MS analysis (reference value: 98.3 %); set-up: scale not given: the % may be the effect or the level left; conditions: at 1 µg/mL
[11] = target: T1, Lanosterol 14-alpha demethylase; experiment: Inhibition of CYP51 in Candida albicans SC5314 assessed as obtusifoliol level at 2 ug/ml by GC-MS analysis (reference value: 0 %); set-up: scale not given: the % may be the effect or the level left; conditions: at 2 µg/mL
PC-3 = experiment: Cytotoxicity against human PC-3 cells assessed as inhibition of cell growth by MTT assay; type: functional, cell-based
[12] = target: T1, Lanosterol 14-alpha demethylase; experiment: Inhibition of CYP51 in Candida albicans SC5314 assessed as eburicol level at 2 ug/ml by GC-MS analysis (reference value: 0 %); set-up: scale not given: the % may be the effect or the level left; conditions: at 2 µg/mL
[13] = target: T1, Lanosterol 14-alpha demethylase; experiment: Inhibition of CYP51 in Candida albicans SC5314 assessed as eburicol level at 1 ug/ml by GC-MS analysis (reference value: 0 %); set-up: scale not given: the % may be the effect or the level left; conditions: at 1 µg/mL
[14] = target: T1, Lanosterol 14-alpha demethylase; experiment: Inhibition of CYP51 in Candida albicans SC5314 assessed as obtusifoliol level at 1 ug/ml by GC-MS analysis (reference value: 0 %); set-up: scale not given: the % may be the effect or the level left; conditions: at 1 µg/mL
[15] = target: T1, Lanosterol 14-alpha demethylase; experiment: Inhibition of CYP51 in Candida albicans SC5314 assessed as lanosterol level at 1 ug/ml by GC-MS analysis (reference value: 1.7 %); set-up: scale not given: the % may be the effect or the level left; conditions: at 1 µg/mL
[16] = target: T1, Lanosterol 14-alpha demethylase; experiment: Inhibition of CYP51 in Candida albicans SC5314 assessed as eburicol level at 4 ug/ml by GC-MS analysis (reference value: 0 %); set-up: scale not given: the % may be the effect or the level left; conditions: at 4 µg/mL
[17] = target: T1, Lanosterol 14-alpha demethylase; experiment: Inhibition of CYP51 in Candida albicans SC5314 assessed as eburicol level at 8 ug/ml by GC-MS analysis (reference value: 0 %); set-up: scale not given: the % may be the effect or the level left; conditions: at 8 µg/mL
[18] = target: T1, Lanosterol 14-alpha demethylase; experiment: Inhibition of CYP51 in Candida albicans SC5314 assessed as obtusifoliol level at 8 ug/ml by GC-MS analysis (reference value: 0 %); set-up: scale not given: the % may be the effect or the level left; conditions: at 8 µg/mL

Compound	MIC (Candida albicans [1]) [µg/mL]	MIC (Candida tropicalis) [µg/mL]	MIC (Candida parapsilosis) [µg/mL]	MIC (Cryptococcus neoformans) [µg/mL]	MIC (Candida albicans [2]) [µg/mL]	MIC (Nakaseomyces glabratus) [µg/mL]	MIC (Aspergillus fumigatus) [µg/mL]	MIC (Pichia kudriavzevii) [µg/mL]	also measured
OC(C[Se]Cc1ccccc1Cl)(Cn1cncn1)c1ccc(F)cc1F (centres undefined)	0.02	0.25	0.125	0.25	0.125	0.5	2	0.125	
Cc1cccc(C)c1[Se]CC(O)(Cn1cncn1)c1ccc(F)cc1F (centres undefined)	0.5	1	0.25	0.25	0.06	1	4	0.125	
OC(C[Se]c1ccc(F)cc1)(Cn1cncn1)c1ccc(F)cc1F (centres undefined)	0.125	0.5	0.125	0.25	0.25	4	4	2	
Cc1cccc([Se]CC(O)(Cn2cncn2)c2ccc(F)cc2F)c1 (centres undefined)	0.125	1	0.5	0.5	0.25	2	8	0.5	
COc1ccc([Se]CC(O)(Cn2cncn2)c2ccc(F)cc2F)cc1 (centres undefined)	0.02	0.125	0.125	0.03	0.25	0.5	16	0.5	Activity [3]: 1.4%; Activity [4]: 19.1%; Activity [5]: 18.2%; IC50 (HL-60): 12.1 µM; Activity [6]: 0.38%; IC50 (MDA-MB-231): 18.8 µM; Activity [7]: 11.2%; Activity [8]: 3.6%; Activity [9]: 19.3%; Activity [10]: 4.3%; Activity [11]: 10.8%; IC50 (PC-3): 26.7 µM; Activity [12]: 64.7%; Activity [13]: 64.3%; Activity [14]: 10.1%; Activity [15]: 18.4%; Activity [16]: 64.5%; Activity [17]: 65.7%; Activity [18]: 11.8%
Cc1ccccc1[Se]CC(O)(Cn1cncn1)c1ccc(F)cc1F (centres undefined)	0.03	1	0.125	0.25	1	0.5	16	0.5	
CCc1ccccc1[Se]CC(O)(Cn1cncn1)c1ccc(F)cc1F (centres undefined)	0.5	2	0.25	0.5	0.25	1	4	1	

Further compounds by falling MIC (Candida albicans [1]), results first:

MIC (Candida albicans [1]) [µg/mL]	MIC (Candida tropicalis) [µg/mL]	MIC (Candida parapsilosis) [µg/mL]	MIC (Cryptococcus neoformans) [µg/mL]	MIC (Candida albicans [2]) [µg/mL]	MIC (Nakaseomyces glabratus) [µg/mL]	MIC (Aspergillus fumigatus) [µg/mL]	MIC (Pichia kudriavzevii) [µg/mL]	Compound	also measured
0.5	2	0.5	1	1	4	4	2	CCc1ccc([Se]CC(O)(Cn2cncn2)c2ccc(F)cc2F)cc1 (centres undefined)	
0.06	1	0.25	1	0.125	4	4	2	Cc1cccc(C[Se]CC(O)(Cn2cncn2)c2ccc(F)cc2F)c1 (centres undefined)	
0.03	0.06	0.25	0.03	0.06	4	8	2	Cc1cc(C)cc([Se]CC(O)(Cn2cncn2)c2ccc(F)cc2F)c1 (centres undefined)	
